Experiment [1] deals with T1, human recombinant histamine H1 receptor (Homo sapiens, UniProt P35367).
T1 construct: expressed in transfected cells; host or cells: CHO cells
In words: Histamine H1 radioligand binding ([3H]Pyrilamine). Conditions: for inhibition at 0.03 µM: 0.03 μM compound; for inhibition at 0.1 µM: 0.1 μM compound. Here is the method:
To evaluate in radioligand binding assays the activity of compounds of the invention, human recombinant histamine H1 receptor expressed in Chinese hamster ovary (CHO) cells (De Backer M D et al. Biochem. Biophys. Res Comm. 197(3):1601, 1993) in a modified Tris-HCl buffer (50 mM Tris-HCl, pH 7.4, 2 mM MgCl2, 100 mM NaCl, 250 mM Sucrose) were used. […] Non-specific binding was estimated in the presence of 1 μM pyrilamine. Receptor proteins were filtered and washed, the filters were then counted to determine [^3H]pyrilamine specifically bound. […] Biochemical assay results are presented as the percent inhibition of specific binding in Table 5.
To evaluate in radioligand binding assays the activity of compounds of the invention, human recombinant histamine H1 receptor expressed in Chinese hamster ovary (CHO) cells (De Backer, M. D. et al., Biochem. Biophys. Res. Comm. 197(3):1601, 1993) in a modified Tris-HCl buffer (50 mM Tris-HCl, pH 7.4, 2 mM MgCl2, 100 mM NaCl, 250 mM Sucrose) was used. […] Non-specific binding was estimated in the presence of 1 μM pyrilamine. Receptor proteins were filtered and washed, the filters were then counted to determine [^3H]Pyrilamine specifically bound. Compounds were screened at 1 μM, using 1% DMSO as vehicle. Biochemical assay results are presented as the percent inhibition of specific binding in Table 6.

In experiment [2] the target is T2, human recombinant histamine H2 receptor (Homo sapiens, UniProt P25021).
T2 construct: expressed in transfected cells; host or cells: CHO-K1 cells
T2 sequence (P25021 whole entry): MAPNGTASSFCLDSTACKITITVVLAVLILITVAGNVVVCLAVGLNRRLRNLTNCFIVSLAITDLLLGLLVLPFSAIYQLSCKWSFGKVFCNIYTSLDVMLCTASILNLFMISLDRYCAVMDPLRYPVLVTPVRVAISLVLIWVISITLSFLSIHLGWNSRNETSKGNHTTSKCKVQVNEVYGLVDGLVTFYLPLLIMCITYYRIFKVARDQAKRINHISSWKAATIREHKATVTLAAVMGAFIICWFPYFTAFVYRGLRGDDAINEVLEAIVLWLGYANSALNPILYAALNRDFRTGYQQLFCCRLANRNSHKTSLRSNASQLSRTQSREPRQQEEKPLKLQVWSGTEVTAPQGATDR
In words: Histamine H2 radioligand binding ([125I]Aminopotentidine). Conditions: for inhibition at 0.3 µM: 0.3 μM compound. Here is the method: Non-specific binding was estimated in the presence of 3 μM Tiotidine. […] Biochemical assay results are presented as the percent inhibition of specific binding in Table 5.
Non-specific binding was estimated in the presence of 3 μM Tiotidine. […] Compounds were screened at 1 μM, using 1% DMSO as vehicle. Biochemical assay results are presented as the percent inhibition of specific binding in Table 6.

Experiment [3] relates to synaptosomes of cortex of rat brain. Briefly: Glutamate-induced 45Ca2+ uptake into synaptosomes. It is filed as biochemical, Wistar rats. Conditions: for % Ca of control (control-100%), glutamate-induced 45Ca2+ uptake into synaptosomes: rat cortex synaptosomes. How it is done:
Synaptosomes were obtained from cerebral cortex of newborn (9-10 days) Wistar rats using standard Hajos method. The brain was homogenized with 10 volumes of cooled 0.32 M sucrose at 900 rpm. The homogenate was centrifuged at 1500 g for 10 min. and the resulted supernatant was centrifuged at 10000 g for 20 min. The radioactive label was accumulated by suspension of the synaptosomal P2-fraction in the incubation buffer A having the following composition: 132 mM NaCl, 5 mM KCl, 5 mM HEPES, 10 mM glucose, pH 7.4 (protein concentration of approximately 1.5-2 mg/ml). The mixture was further incubated for 5 min with 200 μM glutamate at 37° C. and then ^45Ca^2+ uptake was stopped by filtration through GF/B filters (Whatman, England) followed by three washes with cold buffer B (145 mM KCl, 10 mM Tris, 5.4 mM Trilon B, pH 7.4). The radioactivity probes were analyzed by fluid scintillation beta-analyzer (TriCarb, Perkin Elmer). All tests were performed in three parallel trials in 2-3 independent experiments. The amount of ^45Ca^2+ uptake was estimated by calculating the difference of radioactive label during the stimulation with glutamate and without the stimulation with agonist.
Specific ^45Ca^2+ uptake was estimated using the following equation: K(43/21)=[(Ca4−Ca3)/(Ca2−Ca1)]100%, where
Ca1—^45Ca^2+ uptake for the Control (without glutamate and the compound tested),
[…] glutamate-induced ^45Ca^2+ uptake (glutamate only),
Ca3—^45Ca^2+ uptake in the presence of the compound tested (without glutamate),
Ca4—^45Ca^2+ uptake in the presence of glutamate and the testing compound.
Statistical analysis of the results was performed using Student's t-test.

The next experiment concerns mice. In words: recognition test of new location of a known object (spatial memory). In kind it is in vivo.
Experiment [4] deals with T3, human recombinant dopamine D2L receptor (Homo sapiens, UniProt P14416).
T3 construct: expressed in transfected cells; host or cells: CHO cells
T3 sequence (P14416 whole entry): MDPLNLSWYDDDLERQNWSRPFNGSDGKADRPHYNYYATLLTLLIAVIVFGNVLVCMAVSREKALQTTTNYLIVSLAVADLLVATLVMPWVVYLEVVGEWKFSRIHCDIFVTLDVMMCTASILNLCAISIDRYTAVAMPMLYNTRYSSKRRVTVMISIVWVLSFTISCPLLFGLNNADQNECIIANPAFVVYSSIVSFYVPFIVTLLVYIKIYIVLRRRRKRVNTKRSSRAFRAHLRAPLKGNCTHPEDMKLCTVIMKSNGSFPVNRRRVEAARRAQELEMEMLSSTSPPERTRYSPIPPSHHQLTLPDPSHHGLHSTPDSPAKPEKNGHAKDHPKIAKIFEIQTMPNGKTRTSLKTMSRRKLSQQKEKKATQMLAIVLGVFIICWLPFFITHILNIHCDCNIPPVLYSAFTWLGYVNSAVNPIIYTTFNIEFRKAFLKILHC
In words: Dopamine D2L radioligand binding ([3H]Spiperone). The note with it: percent inhibition of specific binding. Here is the method:
Non-specific binding was estimated in the presence of 10 μM Haloperidol. Receptor proteins were filtered and washed, the filters were then counted to determine [^3H]Spiperone specifically bound. […] Biochemical assay results are presented as the percent inhibition of specific binding in Table 6.

[5] abbreviates: 1 μM compound, […] [3H]Pyrilamine, read-out: Histamine Binding H1, percent inhibition of specific binding.
[6] abbreviates: 1 μM compound, 0.1 nM [125I]Aminopotentidine, read-out: Histamine Binding H2, percent inhibition of specific binding.
The mark [7] stands for this setting: […] [3H]Pyrilamine, read-out: Histamine Binding H1, percent inhibition of specific binding.
Setting [8] is: percent inhibition of specific binding, screened at 1 μM, read-out: Inhibition of ligand binding, Hist. H1.
Where [9] appears, read: 0.1 nM [125I]Aminopotentidine, read-out: Histamine Binding H2, percent inhibition of specific binding.
[10] abbreviates: percent inhibition of specific binding, screened at 1 μM, read-out: Inhibition of ligand binding, Hist. H2.
[11] abbreviates: 1 μM compound, […] [3H]Pyrilamine.

Like-named read-outs stand apart in the source and are kept apart here.

The inhibition is the change of the read-out against control, counted positive when it falls.

T1 sequence (P35367 whole entry): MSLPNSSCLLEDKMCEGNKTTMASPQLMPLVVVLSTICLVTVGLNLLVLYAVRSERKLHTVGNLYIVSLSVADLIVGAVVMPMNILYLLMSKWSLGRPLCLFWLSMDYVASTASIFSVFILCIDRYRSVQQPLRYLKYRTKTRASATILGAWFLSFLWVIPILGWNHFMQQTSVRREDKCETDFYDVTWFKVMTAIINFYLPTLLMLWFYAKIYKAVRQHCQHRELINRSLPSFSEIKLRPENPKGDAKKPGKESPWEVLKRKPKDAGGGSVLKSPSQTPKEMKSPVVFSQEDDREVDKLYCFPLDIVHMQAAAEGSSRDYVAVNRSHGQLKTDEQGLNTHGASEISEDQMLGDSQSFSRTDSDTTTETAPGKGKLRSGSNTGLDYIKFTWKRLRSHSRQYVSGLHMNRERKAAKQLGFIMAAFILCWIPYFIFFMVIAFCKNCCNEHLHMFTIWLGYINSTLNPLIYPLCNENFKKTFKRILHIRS

Consider `Cc1ccc2c(c1)c1c(n2CCC(=O)N2CCC(NC(=O)OC(C)(C)C)CC2)CCN(C)C1` [Compound 226, tert-butyl 1-(3-(1,2,3,4-tetrahydro-2,8-dimethylpyrido[4,3-b]indol-5-yl)propanoyl)piperidin-4-ylcarbamate], for which the inhibition at 1 µM stood at 87% in experiment [1] (setting [5]) and 96% in experiment [2] (setting [6]).

Take `CN1CCc2c(c3ccccc3n2CCc2nc(-c3ccccc3)cs2)C1` [Compound C1-1]: the “concentration at which glutamate-induced 45Ca2+ uptake into synaptosomes was increased” value in experiment [3] fell in the range of 50 to 100 µM. Besides, the “inhibition of glutamate-induced 45Ca2+ uptake into synaptosomes” value in experiment [3] (0.1-0.5 μM) was around 13%. Moreover, the “glutamate-induced 45Ca2+ uptake into synaptosomes of rat cortex, % Ca of control (control-100%)” value in experiment [3] (C 50 μM) is 126.9%. Besides, the “% Ca of control (control-100%), glutamate-induced 45Ca2+ uptake into synaptosomes” value in experiment [3] (compound 0.1 μM) was found to be 85.5 ± 5.8%; in experiment [3] (compound 0.5 μM), 86.9 ± 4.2%; in experiment [3] (compound 1 μM), 100.3 ± 6.5%; in experiment [3] (compound 5 μM), 98.8 ± 3.2%; in experiment [3] (compound 10 μM) it was 91 ± 11.9%; in experiment [3] (compound 50 μM) it was 126.9 ± 4.5%. Moreover, the “% Ca of control (control-100%), glutamate-induced 45Ca2+ uptake into synaptosomes” value in experiment [3] (compound 100 μM) is 111.9 ± 11.31%. The “Influence on memory in the test recognition new localization of known object” value is “+” in the experiment with mice (Dose of Compound 0.05 mg/kg), “+” in the experiment on mice (Dose of Compound 0.1 mg/kg), “−” in the experiment on mice (Dose of Compound 0.5 mg/kg) and “+” with mice (Dose of Compound 1.0 mg/kg). Moreover, the “activity on memory compared with dimebon (in words)” value in the experiment with mice (comparison of effective doses) was “approximately two times higher”. Moreover, the “time exploring the object in a new location, % of the total time” value with mice (mice, dose 0.05 mg/kg) turned out to be 61.8±8.4%; in the experiment with mice (mice, dose 0.1 mg/kg) it was 56.0±6.9%; in the experiment on mice (mice, dose 1 mg/kg), 61.5±8.9%. In addition, the “time exploring the object in the known position, % of the total time” value in the experiment with mice (mice, dose 0.05 mg/kg) is on record as 38.2±8.4%; in the experiment on mice (mice, dose 0.1 mg/kg), 42.7±6.9%; with mice (mice, dose 1 mg/kg), 37.8±8.9%. Moreover, the “effect of the dose on exploration time / memory (in words)” value in the experiment with mice (mice, dose 0.5 mg/kg) is “disappearance of the stimulating effect on memory”. In the experiment with mice (mice, doses 0.05-1 mg/kg), the “overall effect on memory (in words)” value is “stimulating effect on memory”.

On to `CCN1CCc2c(c3cc(C)ccc3n2CCc2ccc(C)cc2)C1` [Compound 26], for which the inhibition at 0.03 µM in experiment [1] (setting [7]) is 67%. The inhibition at 0.1 µM in experiment [1] (setting [7]) is 81%. Besides, the inhibition at 1 µM in experiment [1] (setting [5]) turned out to be 96%; in experiment [1] (setting [8]), 96%; in experiment [2] (setting [6]) it was 73%; in experiment [2] (setting [10]) it was 73%. Besides, the inhibition at 0.3 µM in experiment [2] (setting [9]) is 34%.

Regarding `CN1CCc2c(c3cc(Cl)ccc3n2C[C@@](C)(O)c2ccc(F)cc2)C1` [Compound 110], in experiment [4], the “Inhibition of ligand binding, Dop. D2L” value is 35%.

Regarding `CN1Cc2c(n(CCc3noc(-c4ccccc4)n3)c3ccc(Cl)cc23)CC12CC2` [Compound 223], the inhibition at 1 µM is 100% in experiment [1] (setting [5]) and 94% in experiment [2] (setting [6]).

`Cc1ccc2c(c1)c1c(n2CCc2ccc(C(=O)O)nc2)CCN(C)C1=O` [Compound 241]: the inhibition at 1 µM in experiment [1] (read-out: Histamine Binding H1, percent inhibition of specific binding) was 19%; in experiment [2] (read-out: Histamine Binding H2, percent inhibition of specific binding), 11%.

Turning to `Cc1ccc2c(c1)c1c(n2CCc2ccccc2)CCN(C2CC2)C1` [Compound 35, 2-cyclopropyl-2,3,4,5-tetrahydro-8-methyl-5-phenethyl-1H-pyrido[4,3-b]indole], the inhibition at 1 µM in experiment [1] (setting [5]) is 99%; in experiment [2] (setting [6]), 54%.

Turning to `CN1Cc2c(n(CCc3n[nH]c(=S)n3C)c3ccc(C(F)(F)F)cc23)CC1(C)C` [Compound 219], the results for the inhibition at 1 µM in experiment [1] (setting [5]) and in experiment [2] (setting [6]) were 89% and 71%, respectively.

Consider `CN1CCc2c(c3cc(Cl)ccc3n2CCc2n[nH]c(=S)n2C)C1(C)C` [Compound 220], for which the “Histamine Binding H1, percent inhibition of specific binding” value in experiment [1] (setting [11]) came out at 3%. Further, the “Histamine Binding H2, percent inhibition of specific binding” value in experiment [2] (1 μM compound, 0.1 nM [125I]Aminopotentidine) was determined as 22%.

`CCN1CCc2c(c3cc(C)ccc3n2CCc2ccccc2)C1` [Compound 37]: the inhibition at 0.03 µM in experiment [1] (setting [7]) came out at 59%. Also, the inhibition at 0.1 µM in experiment [1] (setting [7]) turned out to be 78%. In addition, the inhibition at 1 µM in experiment [1] (setting [5]) came out at 101%; in experiment [1] (setting [8]), 101%; in experiment [2] (setting [6]), 53%; in experiment [2] (setting [10]), 53%. Further, the inhibition at 0.3 µM in experiment [2] (setting [9]) was 22%.

On to `CN1CCc2c(c3cc(Cl)ccc3n2CCc2n[nH]c(=S)n2C)C1(C)C` [Compound 218], for which, in experiment [1] (setting [11]), the “Histamine Binding H1, percent inhibition of specific binding” value is reported as 80%. Further, the inhibition at 1 µM in experiment [2] (setting [6]) was 34%.

Turning to `FC(F)(F)c1ccc2c(c1)c1c(n2CCc2noc(-c3ccccc3)n2)CCN(C2CC2)C1` [Compound 222], in experiment [1] (10 nM (0.01 μM) compound, […] [3H]Pyrilamine, read-out: Histamine Binding H1, percent inhibition of specific binding), the inhibition at 0.01 µM was determined as 85%. The inhibition at 0.1 µM in experiment [1] (setting [7]) stood at 101%; in experiment [2] (0.1 μM compound, 0.1 nM [125I]Aminopotentidine, read-out: Histamine Binding H2, percent inhibition of specific binding), 89%. The inhibition at 1 µM in experiment [1] (setting [5]) was 103%; in experiment [2] (setting [6]), 98%.

For `Cc1ccc(C(O)Cn2c3c(c4ccccc42)CN(C)CC3)cc1` (stereo not drawn) [Compound 7], the inhibition at 1 µM in experiment [1] (setting [8]) turned out to be 47%; in experiment [2] (setting [10]), 58%.

For the molecule `CN1Cc2c(n(CCc3noc(-c4ccc(Cl)cc4)n3)c3ccc(Cl)cc23)CC12CC2` [Compound 242], the results for the inhibition at 1 µM in experiment [1] (setting [5]) and in experiment [2] (setting [6]) were 94% and 87%, respectively.

`CCOC(=O)N1CCc2c(c3cc(C)ccc3n2CCc2cccnc2)C1` [Compound 217]: the inhibition at 1 µM was -4% in experiment [1] (setting [5]) and 13% in experiment [2] (setting [6]).

(Values after patent US9096591B2, “Tetracyclic compounds” (Medivation Technologies, Inc., priority 2007, dated 2015).)
